Measured values from patent US11643413B2, “9-(2-oxacycloalkyl)-9H-purine-2,6-diamine derivatives and their use for the treatment of skin disorders” (UNIVERZITA PALACKEHO V OLOMOUCI, priority 2017, dated 2023).

Assays:
[1] = tested on: Escherichia coli WP2 uvrA strain; experiment: Ames test (Bacterial Reverse Mutation Test), E. coli; type: cell-based; details: 10-1000 μg per plate; without as well as with metabolic activation
Procedure: The test substance was (114) assayed for the mutagenicity by the Bacterial Reverse Mutation Test. The performed test was based on EU method B.13/14 Mutagenicity—Reverse mutation test using bacteria, which is analogous to the OECD Test Guideline No. 471. Four indicator Salmonella typhimurium strains TA 98, TA 100, TA 1535, TA 1537 and one indicator Escherichia coli WP2 uvrA strain were used. The test substance was dissolved in dimethylsulfoxide (DMSO) and assayed in doses of 10-1000 μg per plate, which were applied to plates in volume of 0.1 mL. Experiments were performed without as well as with metabolic activation with a supernatant of rat liver and a mixture of cofactors. The working procedure described is in accordance with the documents Method B.13/14, Mutagenicity: Reverse Mutation Test Using Bacteria, Council Regulation (EC) No. 440/2008. Published in O.J. L 142, 2008 and OECD Test Guideline 471, Bacterial Reverse Mutation Test. Adopted Jul. 21, 1997. In the arrangement given above, the test substance was non-mutagenic for all the used tester strains without as well as with metabolic activation.

Wistar rats = experiment: Acute dermal toxicity; type: in vivo
Procedure: The test substance 114 was tested for acute dermal toxicity using Wistar rats. Testing was performed according to ČSN EN ISO 10993-11: Biologické hodnoceni zdravotnických prostředků—část 11: Zkoušky na systémovou toxicitu and according to OECD Test Guideline No. 402 Acute Dermal Toxicity Adopted 24 Feb. 1987. The study was performed as limit test: two groups of animals—5 males and 5 females at the dose of 1000 mg/kg of body weight. The pre-test was performed with 1 male and 1 female from each group. After the pilot experiment, the other animals of the group were dosed. The test substance in delivered form was applied on the shaved skin of the test animals for 24 hours. The test animals were observed 14 days after exposure to the test substance, afterwards they were sacrificed, and the necropsy for macroscopic examination of the organs was performed. […] The test substance toxicity was evaluated on the basis of mortality, body weight changes, and clinical signs of toxicity during the observation period and necropsy findings at the end of the study. According to the results of study, the value of Maximum Tolerated Dose (dermal) of the test substance for rats of both sexes is higher than 1000 mg/kg of body weight.

[2] = tested on: Rabbits (New Zealand Albino breed); details: rabbit, in vivo
Procedure: The test substance 114 was tested in Animal skin irritation test. Rabbits (New Zealand Albino breed) were used for the test. The test was performed according to ČSN EN ISO 10993 (Březen 2014): Biologické hodnoceni zdravotnických prostředků—část 10: Zkoušky dráždivosti a senzibilizace kůže, článek 6.3 Zkouška dráždivosti na zviřatech (Biological evaluation of medical devices—Part 10: Tests for irritation and delayed-type hypersensitivity). A dose 0.5 g of the test substance was applied to the skin of the back on each side of each rabbit. […] At first the one rabbit (test animal. No. 16) was used. Two other rabbits (rabbit No. 17 and No. 18) were used in confirmatory test. At the end of the contact time (4 hours) the dressings were removed and animals were examined for signs of erythema and oedema, and the response was evaluated at 1, 24, 48 and 72 hours afterpatches removal.

**Q.** For `CN(C)c1nc(NCc2ccco2)c2ncn(C3CCCCO3)c2n1` (centres unmarked) [Compound 114, 2-(Dimethylamino)-6-furfurylamino-9-(tetrahydro-2H-pyran-2-yl)-9H-purine], which mutagenicity [1] is on record?
**A.** The mutagenicity was “non-mutagenic”.

**Q.** What about the mortality (Wistar rats; 1000 mg/kg of body weight dermal, 14 days observation) of the same compound?
**A.** The mortality was “did not cause death of animals”.

**Q.** What about the “Maximum Tolerated Dose (dermal)” value (Wistar rats; 24 hours on shaved skin, rats of both sexes) of the same compound?
**A.** Its value is “higher than 1000 mg/kg of body weight”.

**Q.** What about the “Primary Irritation Index” value ([2]; New Zealand Albino, 4 h) of the same compound?
**A.** Its value is 0.

**Q.** And the “changes in animal weights” value [2]?
**A.** Its value is “No changes in animal weights”.

**Q.** What about the “clinical signs of systemic intoxication” value [2] of the same compound?
**A.** The value was “No clinical signs of systemic intoxication”.

**Q.** What about the erythema and oedema [2] of the same compound?
**A.** Its erythema and oedema is “No erythema and oedema”.

**Q.** What about the skin irritation [2] of the same compound?
**A.** The skin irritation was “No skin irritation”.
